Measured values published in patent US6613512B1, “Apparatus and method for correcting for variable velocity in microfluidic systems” (Caliper Technologies Corp., priority 1997, dated 2003).

How the values were obtained:
Type in all cases: biochemical
LAR phosphatase [1] = target: T1, LAR phosphatase (Homo sapiens, UniProt P10586); experiment: LAR phosphatase/dFMUP assay in a cuvette on the spectrophotometer; conditions: 1M NDSB-195/50 mM Hepes, pH 7.5, 0.1 mg/ml BSA
Method: A least squares fit of the three straight lines: no inhibitor, 35 μM and 69 μM peptide, was performed with the constraint that they meet at a common intercept on the y axis, 1/Vmax FIG. 15. […] The kcat is 4.74 μmol/min nmol LAR. The parallel analysis performed on the spectrophotometer in the same running buffer yielded a kcat of 6 μmol/min nmol LAR. […] The same analysis performed in a cuvette experiment with 1 mg/ml BSA in the running buffer gave 167 μM peptide.
In addition to the above kinetic studies, rate as a function of substrate concentration data was collected on three separate chips in order to consider interchip reproducibility for Km analyses. The combined data were used to prepare a double reciprocal plot. […] This is in excellent agreement with cuvette experiments performed on the spectrophotometer where dFMU was detected at 360 nm in a temperature controlled cuvette at 25° C.

LAR phosphatase [2] = target: T1, LAR phosphatase; experiment: Continuous flow LAR phosphatase assay with fluorogenic substrate dFMUP on a 7A microchip
From the text: In many cases, the biochemical system that is being assayed can be selected or engineered to have an easily detectable result. For example, assaying enzyme function is typically made simple by utilizing fluorogenic substrates for the enzyme, e.g., non-fluorescent substrates which yield fluorescent products. Such assays are readily incorporated into microfluidic devices for performance of assays to identify compounds that may effect normal enzyme activity. In one embodiment, using a 7A chip as described supra (see, e.g., FIG. 7), one continuously flows enzyme and fluorogenic substrate through a channel of the device. This continuous flow of enzyme and substrate produces a steady state fluorescent signal from the fluorescent product. Enzyme inhibitor (or, e.g., compounds for which one wishes to test inhibitory activity) are periodically introduced into the main channel. These inhibitors then reduce the amount of product produced within the main channel resulting in a deviation from the steady state signal. Specifically, both phosphatase assays and protease assays were performed using a 7A chip.
The phosphatase assay utilizes a fluorogenic substrate dFMU, which produces a fluorescent signal upon dephosphorylation. The reaction is shown schematically in FIG. 12. […] In this experiment, the running buffer was 1 M NDSB-195 in 25 mM HEPES, pH 7.9. Reagent concentrations were 125 nM LAR, 50 μM dFMUP and 200 μM peptide inhibitor in wells 6, 8 and 2 respectively. Each reagent well was paired with a well containing running buffer. The system was programmed to repeatedly run a sixteen-step loop of experiments. The sixteen steps were a series of controls followed by the enzyme plus substrate experiment. Each step of the loop conserved the total current flux in the main reaction channel. The total flux remained constant during each step of the loop by maintaining a constant sum of currents from the wells. The proportion of that overall flux from each reagent and buffer well was selected to provide the desired final reagent concentration in the main reaction channel. The fluorescence response was monitored in each of the sixteen experimental steps where the continuous flow stream alternated between buffer, substrate, buffer, substrate plus enzyme at four different substrate concentrations. An example of a controller program is shown below, Table 2.
The substrate concentration was varied for each sequence of three controls followed by the enzyme reaction. The concentrations of the reagents in the main channel can be calculated from the ratio of currents used to pump the reagents. The concentrations in the reaction channel are simply the concentration in the well multiplied by the ratio of current applied at that well, divided by the total current. Here the reaction mixture was […], and either 5, 12.5, 17 or 25 μM dFMUP. The raw fluorescence data is plotted as a function of time. […] Rise times for the enzyme/substrate signal are less than 5 seconds. The background signal remained low over the course of many experimental cycles.
The raw data for the Km, Vmax, kcat and Ki determinations are plotted in FIG. 14. Each trace represents a set of experiments performed in seven step cycles. The enzyme solution was pumped continuously, providing a final concentration of 83 nM LAR in 1 M NDSB-195, 50 mM HEPES, pH 7.5 in the reaction channel, while the signal at various substrate concentrations was recorded. The first step of the cycle is an enzyme only control. Steps two through six contain different levels of substrate up to an including 17 μM dFMUP. The final step of the cycle is a substrate only control, 17 μM dFMUP with no enzyme. The entire experiment, (no peptide inhibitor), was repeated at two inhibitor concentrations, 35 uM and 69 uM peptide. […]

HCV protease = target: T2, HCV protease (Hepatitis C virus genotype 1a, UniProt P27958); conditions: Chip; 25 mM TRIS/HCL, pH 8.5, 0.1% Triton X-100, 10 mM DTT, 1M NDSB-195
T2 construct: HCV protease was used in a similar fluorogenic assay
T2 sequence (P27958 1027-1208): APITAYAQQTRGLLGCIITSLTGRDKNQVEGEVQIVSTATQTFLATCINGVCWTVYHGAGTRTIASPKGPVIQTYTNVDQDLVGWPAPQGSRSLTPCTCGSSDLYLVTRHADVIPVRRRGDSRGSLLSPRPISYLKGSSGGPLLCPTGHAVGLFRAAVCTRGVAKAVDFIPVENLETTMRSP
Method: The product fluorescence is proportional to the amount of cleaved substrate. The height of the product signal is proportional to the rate of enzyme turnover for that substrate concentration. The rate of fluorescence generation can be assessed as the fluorescence signal per mixing time of substrate and enzyme in the reaction channel. That mixing time is determined by the mean residence time of the fluorescent product in the reaction channel as it is electrokinetically pumped from the source of the mixing to the detector. Km was determined from the Michaelis Menton equation.
Due to the chemistry of this FRET quenching reaction, several considerations for accurate measurement of Km on the Labchip™ exist. (1.) There is not an accurate calibration curve for the EDANS labeled product. (2) Accurate determination of the substrate concentration in the Labchip™ reagent well by a simple spectrophotometric measurement is not performed. […]
Note however that this well controlled background fluorescence is not the substrate only background. The extent of substrate hydrolysis over time could not be measured in the continuous flow analysis where enzyme was pumped throughout the course of the experiments. […]
The average percent inhibition response was calculated for the first three inhibited and uninhibited signals at the start of each hour.

[3] = chip, 50 mM HEPES, pH 7.5, 10 mM DTT, 0.5 M NDSB-195

T1 sequence (P10586 30-1907): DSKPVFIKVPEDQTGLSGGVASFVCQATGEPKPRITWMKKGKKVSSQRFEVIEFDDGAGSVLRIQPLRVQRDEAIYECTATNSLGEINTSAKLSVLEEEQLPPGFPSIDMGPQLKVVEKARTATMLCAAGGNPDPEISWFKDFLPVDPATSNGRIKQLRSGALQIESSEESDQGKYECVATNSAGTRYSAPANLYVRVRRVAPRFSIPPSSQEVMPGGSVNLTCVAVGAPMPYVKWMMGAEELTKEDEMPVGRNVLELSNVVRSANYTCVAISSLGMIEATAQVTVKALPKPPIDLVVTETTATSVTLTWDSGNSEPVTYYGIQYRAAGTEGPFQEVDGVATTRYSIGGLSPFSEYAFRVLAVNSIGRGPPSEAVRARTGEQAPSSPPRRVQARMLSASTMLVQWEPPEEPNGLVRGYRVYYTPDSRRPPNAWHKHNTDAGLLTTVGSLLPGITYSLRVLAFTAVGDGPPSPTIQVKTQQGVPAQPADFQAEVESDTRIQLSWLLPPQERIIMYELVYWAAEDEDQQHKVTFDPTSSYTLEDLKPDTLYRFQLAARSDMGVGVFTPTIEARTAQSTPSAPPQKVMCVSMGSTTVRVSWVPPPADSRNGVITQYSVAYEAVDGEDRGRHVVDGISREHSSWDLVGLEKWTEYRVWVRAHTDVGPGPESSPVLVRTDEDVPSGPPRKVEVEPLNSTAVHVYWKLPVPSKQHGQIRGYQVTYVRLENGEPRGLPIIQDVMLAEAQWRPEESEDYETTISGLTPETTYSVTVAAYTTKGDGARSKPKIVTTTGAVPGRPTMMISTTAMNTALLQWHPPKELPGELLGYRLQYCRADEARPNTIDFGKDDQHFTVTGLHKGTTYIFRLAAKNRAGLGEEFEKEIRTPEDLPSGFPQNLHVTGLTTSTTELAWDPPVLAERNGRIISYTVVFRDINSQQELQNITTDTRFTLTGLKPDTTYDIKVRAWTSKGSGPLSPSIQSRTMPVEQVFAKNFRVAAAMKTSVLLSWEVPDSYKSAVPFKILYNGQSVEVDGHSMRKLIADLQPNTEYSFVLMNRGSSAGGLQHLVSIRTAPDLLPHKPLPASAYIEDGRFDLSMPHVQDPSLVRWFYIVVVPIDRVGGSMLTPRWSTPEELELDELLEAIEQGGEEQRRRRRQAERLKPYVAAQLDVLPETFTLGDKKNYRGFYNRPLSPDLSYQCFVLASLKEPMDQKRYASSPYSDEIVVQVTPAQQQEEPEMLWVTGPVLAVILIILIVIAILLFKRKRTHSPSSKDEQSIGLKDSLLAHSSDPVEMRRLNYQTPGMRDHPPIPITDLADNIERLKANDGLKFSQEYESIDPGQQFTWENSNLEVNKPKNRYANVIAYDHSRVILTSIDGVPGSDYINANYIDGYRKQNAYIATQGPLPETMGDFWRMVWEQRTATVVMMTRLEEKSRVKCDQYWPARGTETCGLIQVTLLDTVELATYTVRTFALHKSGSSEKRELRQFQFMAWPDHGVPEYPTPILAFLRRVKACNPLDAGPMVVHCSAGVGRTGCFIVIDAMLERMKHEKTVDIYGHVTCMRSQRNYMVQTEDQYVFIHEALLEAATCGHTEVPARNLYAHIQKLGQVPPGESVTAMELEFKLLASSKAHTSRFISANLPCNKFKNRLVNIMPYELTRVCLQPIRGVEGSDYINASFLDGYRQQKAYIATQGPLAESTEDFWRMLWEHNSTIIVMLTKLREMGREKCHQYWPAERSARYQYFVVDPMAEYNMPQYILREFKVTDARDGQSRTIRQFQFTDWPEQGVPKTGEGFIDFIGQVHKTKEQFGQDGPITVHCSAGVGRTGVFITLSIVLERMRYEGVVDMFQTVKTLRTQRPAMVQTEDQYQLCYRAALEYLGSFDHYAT

kcat (LAR phosphatase [1]; Cuvette (spectrophotometer)) | Km (LAR phosphatase [1]; Cuvette, 25° C, average of four determinations) | kcat (LAR phosphatase [2]; Chip, 1M NDSB-195/50 mM Hepes, pH 7.5, 83 nM LAR) | Km (LAR phosphatase [2]; Chip, 1M NDSB-195/50 mM Hepes, pH 7.5, average of three chips, read-out: Km LAR/dFMUP) | Km (LAR phosphatase [2]; Chip, combined data of three separate chips, double reciprocal plot, read-out: Km) | Vmax (LAR phosphatase [2]; Chip, least squares fit of Lineweaver-Burke lines, 83 nM LAR) | Vmax (LAR phosphatase [2]; [3]) | kcat (LAR phosphatase [2]; [3]) | Km (LAR phosphatase [2]; chip, 50 mM HEPES, pH 7.5, 10 mM DTT, 0.5 M NDSB-195, read-out: Km) | SMILES | Km (HCV protease)
6 μmol/min nmolLAR | 23.2 µM | 4.74 μmol/min nmolLAR | 18.7 µM | 18.2 µM | 6.71 μM dFMU/s | 0.011 mM/s | 3000 to 5000 min⁻¹ | 20 to 400 µM | Cc1cc(=O)oc2c(F)c(OP(=O)(O)O)c(F)cc12 [dFMUP] | –
– | – | – | – | – | – | – | – | – | C/C=C1\NC(=O)[C@H]2CSSCC/C=C/[C@H](CC(=O)N[C@H](C(C)C)C(=O)N2)OC(=O)[C@H](C(C)C)NC1=O [Depsipeptide] | 110 µM
